# Reference: patent US20220370406A1, “METHOD OF TREATING STIMULANT USE DISORDER USING A COMBINATION OF TOPIRAMATE AND PHENTERMINE” (University of Kentucky Research Foundation, priority 2019, published 2022)
# Test system: participants with cocaine use disorder
# Assay: Medical safety session: subjective effects questionnaires after intranasal cocaine
# Type: in vivo, human
# Method: Participants completed one, single-blind medical safety session to ensure they could tolerate intranasal cocaine. Intranasal cocaine doses (i.e., 0 [placebo], 10, 20, 40 and 80 mg) were administered in ascending order. Placebo (i.e., 0 mg) was administered at 0900 hours. The subjective-effect questionnaires and cardiovascular measures described below were completed 30 minutes before placebo administration (i.e., 0830 hours), immediately following and at 15-minute intervals for 45 minutes. Subsequent cocaine administrations were separated by 45 minutes.
# [1] = Cocaine 10 mg, Topiramate (0 mg/day) group
# [2] = Cocaine 10 mg, Topiramate (50 mg/day) group
# [3] = Cocaine 10 mg, Topiramate (100 mg/day) group
# [4] = Cocaine 20 mg, Topiramate (0 mg/day) group
# [5] = Cocaine 20 mg, Topiramate (50 mg/day) group
# [6] = Cocaine 20 mg, Topiramate (100 mg/day) group
structure (smiles),measurement,setting,value
"COC(=O)[C@H]1[C@@H](OC(=O)c2ccccc2)C[C@@H]2CC[C@H]1N2C [Cocaine, cocaine]","Adjective Rating Scales Sedative, mean peak effect",[1],2.0
same,"Adjective Rating Scales Stimulant, mean peak effect",[1],6.1
same,"Drug-Effect Questionnaire Active-Alert-Energetic, mean peak effect",[1],17.0
same,"Drug-Effect Questionnaire Any Effect, mean peak effect",[1],21.5
same,"Drug-Effect Questionnaire Bad Effects, mean peak effect",[1],4.4
same,"Drug-Effect Questionnaire Euphoric, mean peak effect",[1],10.1
same,"Drug-Effect Questionnaire Good Effects, mean peak effect",[1],21.5
same,"Drug-Effect Questionnaire High, mean peak effect",[1],17.3
same,"Drug-Effect Questionnaire Irregular Heart Beat, mean peak effect",[1],7.0
same,"Drug-Effect Questionnaire Like Drug, mean peak effect",[1],25.2
same,"Drug-Effect Questionnaire Nausea-Queasy-Sick, mean peak effect",[1],3.3
same,"Drug-Effect Questionnaire Nervous-Anxious, mean peak effect",[1],5.1
same,"Drug-Effect Questionnaire Performance Impaired, mean peak effect",[1],4.9
same,"Drug-Effect Questionnaire Performance Improved, mean peak effect",[1],10.7
same,"Drug-Effect Questionnaire Restless, mean peak effect",[1],7.9
same,"Drug-Effect Questionnaire Rush, mean peak effect",[1],15.5
same,"Drug-Effect Questionnaire Shaky-Jittery, mean peak effect",[1],3.9
same,"Drug-Effect Questionnaire Sluggish-Fatigued-Lazy, mean peak effect",[1],8.1
same,"Drug-Effect Questionnaire Stimulated, mean peak effect",[1],13.8
same,"Drug-Effect Questionnaire Talkative-Friendly, mean peak effect",[1],17.0
same,"Drug-Effect Questionnaire Willing to Pay For, mean peak effect",[1],20.6
same,"Drug-Effect Questionnaire Willing to Take Again, mean peak effect",[1],26.3
same,"Adjective Rating Scales Sedative, mean peak effect",[2],3.9
same,"Adjective Rating Scales Stimulant, mean peak effect",[2],8.7
same,"Drug-Effect Questionnaire Active-Alert-Energetic, mean peak effect",[2],11.2
same,"Drug-Effect Questionnaire Any Effect, mean peak effect",[2],7.0
same,"Drug-Effect Questionnaire Bad Effects, mean peak effect",[2],1.2
same,"Drug-Effect Questionnaire Euphoric, mean peak effect",[2],3.4
same,"Drug-Effect Questionnaire Good Effects, mean peak effect",[2],6.4
same,"Drug-Effect Questionnaire High, mean peak effect",[2],6.1
same,"Drug-Effect Questionnaire Irregular Heart Beat, mean peak effect",[2],0.6
same,"Drug-Effect Questionnaire Like Drug, mean peak effect",[2],9.2
same,"Drug-Effect Questionnaire Nausea-Queasy-Sick, mean peak effect",[2],1.2
same,"Drug-Effect Questionnaire Nervous-Anxious, mean peak effect",[2],0.3
same,"Drug-Effect Questionnaire Performance Impaired, mean peak effect",[2],0.9
same,"Drug-Effect Questionnaire Performance Improved, mean peak effect",[2],3.3
same,"Drug-Effect Questionnaire Restless, mean peak effect",[2],1.2
same,"Drug-Effect Questionnaire Rush, mean peak effect",[2],5.9
same,"Drug-Effect Questionnaire Shaky-Jittery, mean peak effect",[2],1.4
same,"Drug-Effect Questionnaire Sluggish-Fatigued-Lazy, mean peak effect",[2],5.4
same,"Drug-Effect Questionnaire Stimulated, mean peak effect",[2],11.9
same,"Drug-Effect Questionnaire Talkative-Friendly, mean peak effect",[2],4.7
same,"Drug-Effect Questionnaire Willing to Pay For, mean peak effect",[2],5.4
same,"Drug-Effect Questionnaire Willing to Take Again, mean peak effect",[2],12.0
same,"Adjective Rating Scales Sedative, mean peak effect",[3],3.1
same,"Adjective Rating Scales Stimulant, mean peak effect",[3],10.6
same,"Drug-Effect Questionnaire Active-Alert-Energetic, mean peak effect",[3],6.4
same,"Drug-Effect Questionnaire Any Effect, mean peak effect",[3],10.7
same,"Drug-Effect Questionnaire Bad Effects, mean peak effect",[3],0.2
same,"Drug-Effect Questionnaire Euphoric, mean peak effect",[3],5.6
same,"Drug-Effect Questionnaire Good Effects, mean peak effect",[3],14.5
same,"Drug-Effect Questionnaire High, mean peak effect",[3],7.4
same,"Drug-Effect Questionnaire Irregular Heart Beat, mean peak effect",[3],2.8
same,"Drug-Effect Questionnaire Like Drug, mean peak effect",[3],10.1
same,"Drug-Effect Questionnaire Nausea-Queasy-Sick, mean peak effect",[3],6.8
same,"Drug-Effect Questionnaire Nervous-Anxious, mean peak effect",[3],0.2
same,"Drug-Effect Questionnaire Performance Impaired, mean peak effect",[3],0.2
same,"Drug-Effect Questionnaire Performance Improved, mean peak effect",[3],2.1
same,"Drug-Effect Questionnaire Restless, mean peak effect",[3],0.7
same,"Drug-Effect Questionnaire Rush, mean peak effect",[3],6.9
same,"Drug-Effect Questionnaire Shaky-Jittery, mean peak effect",[3],0.3
same,"Drug-Effect Questionnaire Sluggish-Fatigued-Lazy, mean peak effect",[3],0.5
same,"Drug-Effect Questionnaire Stimulated, mean peak effect",[3],7.7
same,"Drug-Effect Questionnaire Talkative-Friendly, mean peak effect",[3],7.8
same,"Drug-Effect Questionnaire Willing to Pay For, mean peak effect",[3],8.6
same,"Drug-Effect Questionnaire Willing to Take Again, mean peak effect",[3],12.6
same,"Adjective Rating Scales Sedative, mean peak effect",[4],4.6
same,"Adjective Rating Scales Stimulant, mean peak effect",[4],8.4
same,"Drug-Effect Questionnaire Active-Alert-Energetic, mean peak effect",[4],23.5
same,"Drug-Effect Questionnaire Any Effect, mean peak effect",[4],28.6
same,"Drug-Effect Questionnaire Bad Effects, mean peak effect",[4],4.5
same,"Drug-Effect Questionnaire Euphoric, mean peak effect",[4],11.5
same,"Drug-Effect Questionnaire Good Effects, mean peak effect",[4],26.1
same,"Drug-Effect Questionnaire High, mean peak effect",[4],20.0
same,"Drug-Effect Questionnaire Irregular Heart Beat, mean peak effect",[4],8.8
same,"Drug-Effect Questionnaire Like Drug, mean peak effect",[4],27.8
same,"Drug-Effect Questionnaire Nausea-Queasy-Sick, mean peak effect",[4],2.9
same,"Drug-Effect Questionnaire Nervous-Anxious, mean peak effect",[4],8.5
same,"Drug-Effect Questionnaire Performance Impaired, mean peak effect",[4],10.4
same,"Drug-Effect Questionnaire Performance Improved, mean peak effect",[4],12.0
same,"Drug-Effect Questionnaire Restless, mean peak effect",[4],8.9
same,"Drug-Effect Questionnaire Rush, mean peak effect",[4],19.4
same,"Drug-Effect Questionnaire Shaky-Jittery, mean peak effect",[4],8.8
same,"Drug-Effect Questionnaire Sluggish-Fatigued-Lazy, mean peak effect",[4],6.8
same,"Drug-Effect Questionnaire Stimulated, mean peak effect",[4],18.7
same,"Drug-Effect Questionnaire Talkative-Friendly, mean peak effect",[4],18.6
same,"Drug-Effect Questionnaire Willing to Pay For, mean peak effect",[4],24.9
same,"Drug-Effect Questionnaire Willing to Take Again, mean peak effect",[4],32.9
same,"Adjective Rating Scales Sedative, mean peak effect",[5],2.8
same,"Adjective Rating Scales Stimulant, mean peak effect",[5],8.6
same,"Drug-Effect Questionnaire Active-Alert-Energetic, mean peak effect",[5],12.8
same,"Drug-Effect Questionnaire Any Effect, mean peak effect",[5],9.9
same,"Drug-Effect Questionnaire Bad Effects, mean peak effect",[5],0.3
same,"Drug-Effect Questionnaire Euphoric, mean peak effect",[5],12.4
same,"Drug-Effect Questionnaire Good Effects, mean peak effect",[5],11.2
same,"Drug-Effect Questionnaire High, mean peak effect",[5],13.1
same,"Drug-Effect Questionnaire Irregular Heart Beat, mean peak effect",[5],0.6
same,"Drug-Effect Questionnaire Like Drug, mean peak effect",[5],14.6
same,"Drug-Effect Questionnaire Nausea-Queasy-Sick, mean peak effect",[5],2.2
same,"Drug-Effect Questionnaire Nervous-Anxious, mean peak effect",[5],0.0
same,"Drug-Effect Questionnaire Performance Impaired, mean peak effect",[5],2.4
same,"Drug-Effect Questionnaire Performance Improved, mean peak effect",[5],5.4
same,"Drug-Effect Questionnaire Restless, mean peak effect",[5],0.7
same,"Drug-Effect Questionnaire Rush, mean peak effect",[5],14.1
same,"Drug-Effect Questionnaire Shaky-Jittery, mean peak effect",[5],1.1
same,"Drug-Effect Questionnaire Sluggish-Fatigued-Lazy, mean peak effect",[5],0.8
same,"Drug-Effect Questionnaire Stimulated, mean peak effect",[5],15.6
same,"Drug-Effect Questionnaire Talkative-Friendly, mean peak effect",[5],10.2
same,"Drug-Effect Questionnaire Willing to Pay For, mean peak effect",[5],7.6
same,"Drug-Effect Questionnaire Willing to Take Again, mean peak effect",[5],10.2
same,"Adjective Rating Scales Sedative, mean peak effect",[6],3.7
same,"Adjective Rating Scales Stimulant, mean peak effect",[6],11.1
same,"Drug-Effect Questionnaire Active-Alert-Energetic, mean peak effect",[6],11.0
same,"Drug-Effect Questionnaire Any Effect, mean peak effect",[6],11.7
same,"Drug-Effect Questionnaire Bad Effects, mean peak effect",[6],2.2
same,"Drug-Effect Questionnaire Euphoric, mean peak effect",[6],5.7
same,"Drug-Effect Questionnaire Good Effects, mean peak effect",[6],10.2
same,"Drug-Effect Questionnaire High, mean peak effect",[6],12.8
same,"Drug-Effect Questionnaire Irregular Heart Beat, mean peak effect",[6],3.2
same,"Drug-Effect Questionnaire Like Drug, mean peak effect",[6],14.9
same,"Drug-Effect Questionnaire Nausea-Queasy-Sick, mean peak effect",[6],10.6
same,"Drug-Effect Questionnaire Nervous-Anxious, mean peak effect",[6],6.6
same,"Drug-Effect Questionnaire Performance Impaired, mean peak effect",[6],5.5
same,"Drug-Effect Questionnaire Performance Improved, mean peak effect",[6],4.0
same,"Drug-Effect Questionnaire Restless, mean peak effect",[6],0.2
same,"Drug-Effect Questionnaire Rush, mean peak effect",[6],12.4
same,"Drug-Effect Questionnaire Shaky-Jittery, mean peak effect",[6],3.1
same,"Drug-Effect Questionnaire Sluggish-Fatigued-Lazy, mean peak effect",[6],1.1
same,"Drug-Effect Questionnaire Stimulated, mean peak effect",[6],10.5
same,"Drug-Effect Questionnaire Talkative-Friendly, mean peak effect",[6],11.2
same,"Drug-Effect Questionnaire Willing to Pay For, mean peak effect",[6],11.7
same,"Drug-Effect Questionnaire Willing to Take Again, mean peak effect",[6],11.6
